Reference: patent US8546608B2, “Proteasome inhibitors and methods of using the same” (Cephalon, Inc., priority 2003, dated 2013)

Key:
[1] = target: T1, 20S Human Erythrocyte Proteasome (HEP) (Homo sapiens, UniProt P20618+P28074); test: Chymotrypsin-like activity of 20S Human Erythrocyte Proteasome (HEP), IC50 determination; format: biochemical; conditions: assay of Example C, inhibition of HEP
T1 construct: 20S Human Erythrocyte Proteasome (HEP), purchased from Immatics Biotechnologies Inc; purchased Immatics Biotechnologies Inc., Tübingen, Germany; host or cells: human erythrocytes (natural source)
Description: Assay for Chymotrypsin-like Activity of 20S Human Erythrocyte Proteasome (HEP)
Proteasome chymotrypsin-like activity of compounds of the invention was assayed according to the following procedure.
In 96-well microtiter plates, 20S Human Erythrocyte Proteasome (HEP), purchased from Immatics Biotechnologies Inc., Tübingen, Germany was plated at 0.2 μg/mL (about 0.6 nM catalytic sites) in 0.04% SDS 20 mM Tris buffer. A fluorimetric substrate Suc-LLVY-AMC (succinyl-Leu-Leu-Val-Tyr-7-amido-4-methylcoumarin), purchased from Sigma Inc., St. Louis, Mo., USA was added to a final concentration of 100 μM from a stock solution of 10 mM in dimethylsulfoxide. Reaction volumes were 100 μl per well. […] Proteasome activity was determined under conditions in which substrate hydrolysis increased linearly with time and the change in fluorescence signal was proportional to the concentration of free AMC.
Determination of IC50 Values for HEP and α-Chymotrypsin Inhibitors
(§1) Inhibition of the chymotrypsin-like activity of HEP and of bovine α-chymotrypsin was determined by incubating the enzyme with various concentrations of putative inhibitors for 15 minutes at 37° C. (or room temperature for α-chymotrypsin) prior to the addition of substrate. Each experimental condition was evaluated in triplicate, and replicate experiments were performed for the inhibitors described herein.

[2] = target: T2, proteasome in Molt-4 cells (human leukemia) (Homo sapiens, UniProt P20618+P28074); format: cell-based; conditions: assay of Example E, inhibition of MOLT4; read-out: MOLT4 (EC50)
T2 sequence (P28074 60-263): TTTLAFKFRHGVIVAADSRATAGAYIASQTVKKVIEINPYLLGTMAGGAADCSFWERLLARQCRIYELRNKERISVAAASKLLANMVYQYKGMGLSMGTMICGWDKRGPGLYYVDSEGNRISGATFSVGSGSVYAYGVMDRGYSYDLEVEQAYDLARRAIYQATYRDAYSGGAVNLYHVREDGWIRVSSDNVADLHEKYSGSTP
T2 sequence (P20618 29-241): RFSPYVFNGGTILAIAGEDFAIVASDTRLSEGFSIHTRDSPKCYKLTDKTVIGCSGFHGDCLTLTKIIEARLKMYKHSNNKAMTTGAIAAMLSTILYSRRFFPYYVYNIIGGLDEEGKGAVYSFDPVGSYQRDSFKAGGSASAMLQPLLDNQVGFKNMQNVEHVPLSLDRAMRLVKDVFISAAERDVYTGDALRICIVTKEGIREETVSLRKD
Description: Cellular Assay for Chymotrypsin-like activity of Proteasome in Molt-4 Cell Line
The chymotrypsin-like activity of proteasome in Molt-4 cells (human leukemia) was assayed according to the following procedure. A brief description of the method was published previously (Harding et al., J. Immunol., 1995, 155, 1767).
Molt-4 cells were washed and resuspended in HEPES-buffered Saline (5.4 mM KCl, 120 mM NaCl, 25 mM Glucose, 1.5 mM MgSO4, 1 mM Na pyruvate, 20 mM Hepes) and plated in 96-well microtiter white plates to a final concentration of 6×10^6 cells/mL. Then various 5× proteasome inhibitor concentrations (or diluted DMSO for controls), prepared from 250×DMSO solutions by diluting 50-fold using HEPES-buffered saline, were added to the plate to a final 1× concentration. After 15 minutes incubation at 37° C., a fluorimetric cell permeable substrate (MeOSuc-FLF-AFC) (methoxysuccinyl-Phe-Leu-Phe-7-amido-4-trifluoromethylcoumarin) purchased from Enzyme Systems Products, catalogue number AFC-88, was added to each well at a final concentration of 25 μM from a stock solution of 20 mM in DMSO. Reaction volumes were 100 μl per well.
The concentration of free AFC was monitored every 1.5 min for 30 min ([…]) on a Polastar Optima, BMG Labtechnologies microplate reader, using an excitation wavelength of 390 nm and emission wavelength of 520 nm. Proteasome activity was determined under conditions in which substrate hydrolysis increased linearly with time and the change in fluorescent signal was proportional to the concentration of free AFC.
Determination of EC50 Values for Proteasome Inhibitors in MOLT-4 Cell Line
as §1, with “of” for “of the”, “proteasome in Molt-4 cells” for “HEP and of bovine α-chymotrypsin”, “cells” for “the enzyme”, “C.” for “C. (or room temperature for α-chymotrypsin)”

| SMILES | IC50 [1] | EC50 [2] |
| --- | --- | --- |
| CC(C)C[C@H](NC(=O)[C@H](CCCNC(=N)N[N+](=O)[O-])NC(=O)C(C)c1ccccc1)B(O)O (mixture of isomers) [D.7.4, Boronic acid, [(1R)-1-[[(2S)-5-[[imino(nitroamino)methyl]amino]-2[((2RS)-2-phenylpropanoyl)amino]-1-oxopentyl]amino]-3-methylbutyl]] | < 10 nM | > 10000 nM |
| CC(C)C[C@H](NC(=O)[C@H](CCCNC(=N)N[N+](=O)[O-])NC(=O)C1CCN(C(=O)OC(C)(C)C)CC1)B(O)O (racemic) [D.7.7, Boronic acid, [(1R)-1-[[(2S)-5-[[imino(nitroamino)methyl]amino]-2-[[(4RS)-1-[(1,1-dimethylethoxy)carbonyl]piperidine-4-carbonyl]amino]-1-oxopentyl]amino]-3-methylbutyl]] | < 10 nM | > 10000 nM |
| CC(C)C[C@H](NC(=O)[C@H](CCCNC(=N)N[N+](=O)[O-])NC(=O)C(CCCCCCCCC#N)C1CCCC1)B(O)O (mixture of isomers) [E.1.19, Boronic acid, [(1R)-1-[[(2S)-5-[[imino(nitroamino)methyl]amino]-2-[((RS)-10-cyano-2-cyclopentydecanoyl)amino]-1-oxopentyl]amino]-3-methylbutyl]] | < 10 nM | 200 to 2000 nM |
| CCCCC(CC)CCC(=O)N[C@@H](CCCNC(=N)N[N+](=O)[O-])C(=O)N[C@@H](CC(C)C)B(O)O (mixture of isomers) [E.2.23, Boronic acid, [(1R)-1-[[(2S)-5-[[imino(nitroamino)methyl]amino]-2-[((RS)-4-ethyloctanoyl)amino]-1-oxopentyl]amino]-3-methylbutyl]] | < 10 nM | 200 to 2000 nM |
| CCC(C)C(=O)N[C@@H](CCCNC(=N)N[N+](=O)[O-])C(=O)N[C@@H](CC(C)C)B(O)O (mixture of isomers) [E.2.35, Boronic acid, [(1R)-1-[[(2S)-5-[[immo(nitroamino)methyl]amino]-2-[((RS)-2-methylbutanoyl)amino]-1-oxopentyl]amino]-3-methylbutyl]] | < 10 nM | > 10000 nM |
| CCCCC(C)CCC(=O)N[C@@H](CCCNC(=N)N[N+](=O)[O-])C(=O)N[C@@H](CC(C)C)B(O)O (mixture of isomers) [E.2.39, Boronic acid, [(1R)-1-[[(2S)-5-[[imino(nitroamino)methyl]amino]-2-[((RS)-4-methyloctanoyl)amino]-1-oxopentyl]amino]-3-methylbutyl]] | < 10 nM | 200 to 2000 nM |
| CCCCC(C(=O)N[C@@H](CCCNC(=N)N[N+](=O)[O-])C(=O)N[C@@H](CC(C)C)B(O)O)C1CCCC1 (mixture of isomers) [E.2.59, Boronic acid, [(1R)-1-[[(2S)-5-[[imino(nitroamino)methyl]amino]-2-[[(RS)-2-cyclopentylhexanoyl]amino]-1-oxopentyl]amino]-3-methylbutyl]] | < 10 nM | 2000 to 10000 nM |
| CC(C)C[C@H](NC(=O)[C@H](CCCNC(=N)N[N+](=O)[O-])NC(=O)C(C)c1ccc(Cl)cc1)B(O)O (mixture of isomers) [E.2.76, Boronic acid, [(1R)-1-[[(2S)-5-[[imino(nitroamino)methyl]amino]-2-[[(RS)-2-(4-chlorophenyl)propanoyl]amino]-1-oxopcntyl]amino]-3-methylbutyl]] | < 10 nM | 2000 to 10000 nM |
| CC(C)C[C@H](NC(=O)[C@H](CCCNC(=N)N[N+](=O)[O-])NC(=O)C1CCCCN1C(=O)OC(C)(C)C)B(O)O (mixture of isomers) [E.2.81, Boronic acid, [(1R)-1-[[(2S)-5-[[imino(nitroamino)methyl]amino]-2-[[(2RS)-1-[(1,1-dimethylethoxy)carbonyl]piperidine-2-carbonyl]amino]-1-oxopentyl]amino]-3-methylbutyl]] | < 100 nM | 2000 to 10000 nM |
